Source: patent US20170107462A1, “ARRAY OF FABRIC TREATMENT PRODUCTS” (The Procter & Gamble Company, priority 2015, published 2017)

Assay: Blocker Index (BI), expert graders on malodorous fabric swatches
Parameters: key: 0-3 malodor scale; 0 = clean untreated swatch
Excerpt: Blocker materials suitable for use in consumer products of the present invention are chosen for their ability to decrease malodor, while not interfering with perception of a fragrance. Material selection is done by assigning two indices to a test sample material from two reference scales in order to rank odor strengths. The two reference scales are the Fragrance Fidelity Index (FFI) scale and the Blocker Index (BI) scale. The FFI ranks the ability of the test sample material to impart a perceivable odor which could cause interference when combined with another fragrance and the BI ranks the ability of the test sample material to reduce malodor perception. The two methods for assigning the indices to a test sample on the FFI and the BI reference scales are given below.
The first step in the method for assigning a BI to a test sample material on the BI reference scale is to create the BI reference swatches. […] Fabric swatches for this test are white knit polycotton (4 inch×4 inch) swatches from EMC ordered as PC 50/50. The supplier is instructed to strip the swatches first, stripping involves washing twice with a fragrance-free detergent and rinsing three times.
The BI scale contains one clean swatch with no malodor applied. […] These solutions are pipetted to the middle of the swatches. […] After drying for 30 minutes in a vented hood, the swatches are wrapped in aluminum foil to prevent odor contamination to the treated swatch. A clean untreated swatch is also included as the lowest anchor point of reference for malodor strength on the BI scale. The BI reference scale swatches should be used within 0.5 to 12 hours and discarded after 12 hours. The swatches are used as scale anchor points when graders evaluate a test sample(s) and are assigned a Blocker Index (BI) as show in Table 12.
The perfumer/expert grader is asked to rank order swatches according to a scale between 0 and 3.
The reference swatches represent the 0, 1, 2, and 3 BIs on the BI reference scale, Table 12. […]

CC(C)CC(=O)O [isovaleric acid]
BI grade of reference swatch, individual Expert Grader (stripped swatch with 2 μL 0.08% isovaleric acid): 2.0 | BI grade of reference swatch, individual Expert Grader (stripped swatch with 5 μL 0.08% isovaleric acid): 2.0 | BI grade of reference swatch, individual Expert Grader (stripped swatch with 20 μL 0.08% isovaleric acid): 3.0
